Structures are written as SMILES.

The test system of the first assay is Erysiphe graminis f.sp. tritici. The assay can be described thus: Erysiphe test (wheat)/curative. Type of assay: in vivo. Conditions: curative, sprayed 48 hours after inoculation, application rate 25 g/ha, evaluation 7 days after inoculation. As to the method: Erysiphe Test (Wheat)/Curative
To prepare a suitable preparation of active compound, a commercial formulation of active compound is diluted with water to the desired concentration.
To test for curative activity, young plants were dusted with spores of Erysiphe graminis f.sp. tritici. 48 hours after the inoculation, the plants were sprayed with the preparation of active compound at the stated application rates.
The plants were placed in a greenhouse at a temperature of about 20° C. and a relative atmospheric humidity of about 80% to promote the development of mildew pustules.
Evaluation was carried out 7 days after the inoculation. 0% means an efficacy which corresponds to that of the control, whereas an efficacy of 100% means that no infection is observed.
As for `CCOC(=O)C1=NN(c2ccc(Cl)cc2Cl)C(C)(C(=O)OCC)C1` (stereo not drawn) [Mefenpyr, diethyl 1-(2,4-dichlorophenyl)-4,5-dihydro-5-methyl-1H-pyrazole-3,5-dicarboxylate], the “efficacy in % found” value worked out at 0%.

Still in this assay, the particulars now being: curative, sprayed 48 hours after inoculation, application rate 125 g/ha, evaluation 7 days after inoculation.
As to `CO/N=C(/C(=O)OC)c1ccccc1CO/N=C(\C)c1cccc(C(F)(F)F)c1` [Trifloxystrobin, trifloxystrobin], the “efficacy in % found” value was found to be 86%.

As for `CC(C)(C)C(O)(CCc1ccc(Cl)cc1)Cn1cncn1` (stereo not drawn) [Tebuconazole, tebuconazole], the “efficacy in % found” value was 57%.

Turning to `CO/N=C(/C1=NOCCO1)c1ccccc1Oc1ncnc(Oc2ccccc2Cl)c1F` [Fluoxastrobin, fluoxastrobin], the “efficacy in % found” value stood at 0%.

`CCCN(CC)CC1COC2(CCC(C(C)(C)C)CC2)O1` (stereo not drawn) [Spiroxamin, spiroxamine]: the “efficacy in % found” value is on record as 0%.

On to `OC(Cc1ccccc1Cl)(Cn1nc[nH]c1=S)C1(Cl)CC1` (stereo not drawn) [Prothioconazole, prothioconazole], for which the “efficacy in % found” value was determined as 43%.

For the origin of these results see patent US9155312B2, “Fungicidal combinations of active ingredients” (Bayer Intellectual Property GmbH, priority 2004, dated 2015).
